Experimental data published in PubChem BioAssay (NCI).
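Five compound concentrations were applied to cells in 96-well plates for 48 hours; endpoints were derived by simple linear interpolation of the resulting dose-response curve. The concentration for full growth arrest is given as TGI.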

Key:
Assay in all cases: NCI-60 cell line screen, 48 h
MOLT-4 leukemia = system: MOLT-4 leukemia
A498 renal = system: A498 renal
U251 CNS = system: U251 CNS
RPMI-8226 leukemia = system: RPMI-8226 leukemia
K-562 leukemia = system: K-562 leukemia
IGROV1 ovarian = system: IGROV1 ovarian
SF-539 CNS = system: SF-539 CNS
SK-MEL-2 melanoma = system: SK-MEL-2 melanoma
CCRF-CEM leukemia = system: CCRF-CEM leukemia
UACC-62 melanoma = system: UACC-62 melanoma
COLO 205 colon = system: COLO 205 colon
ACHN renal = system: ACHN renal
786-0 renal = system: 786-0 renal
CAKI-1 renal = system: CAKI-1 renal
MDA-MB-231 breast = system: MDA-MB-231 breast
MDA-MB-435 = system: MDA-MB-435
HS 578T breast = system: HS 578T breast

Row | Structure (SMILES) | TGI (MOLT-4 leukemia) | TGI (A498 renal) | TGI (U251 CNS) | TGI (RPMI-8226 leukemia) | TGI (K-562 leukemia) | TGI (IGROV1 ovarian) | TGI (SF-539 CNS) | TGI (SK-MEL-2 melanoma) | TGI (CCRF-CEM leukemia) | TGI (UACC-62 melanoma) | TGI (COLO 205 colon) | TGI (ACHN renal) | TGI (786-0 renal) | TGI (CAKI-1 renal) | TGI (MDA-MB-231 breast) | TGI (MDA-MB-435) | TGI (HS 578T breast)
1 | ClCc1nnc2n1-c1ccc(Cl)cc1SC2 | 3.98 µM | 16.1 µM | 19.8 µM | > 100 µM | > 100 µM | 8.09 µM | 13.2 µM | 9.22 µM | 8.42 µM | 8.51 µM | 13 µM | – | – | – | – | – | –
2 | O=C(NC/C=C/CO)c1ccccc1 | > 100 µM | > 100 µM | > 100 µM | > 100 µM | > 100 µM | > 100 µM | > 100 µM | > 100 µM | > 100 µM | > 100 µM | > 100 µM | – | – | – | – | – | –
3 | O=C1CCN(CCC(F)(F)C(F)(F)C(F)(F)C(F)(F)F)C(=S)N1 | > 100 µM | – | > 100 µM | > 100 µM | > 100 µM | > 100 µM | > 100 µM | > 100 µM | > 100 µM | > 100 µM | > 100 µM | > 100 µM | > 100 µM | – | – | – | –
4 | CNC(=S)N/N=C(\C)c1cc(OC)c(OC)cc1O | > 100 µM | > 100 µM | > 100 µM | > 100 µM | > 100 µM | > 100 µM | > 100 µM | > 100 µM | > 100 µM | > 100 µM | > 100 µM | > 100 µM | > 100 µM | > 100 µM | > 100 µM | > 100 µM | –
5 | CC12CCC3C(CCC4(O)C=CCCC34C=O)C1(O)CC(O)C2c1ccc(=O)oc1 (configuration not stated) | 0.394 µM | 0.253 µM | 0.197 µM | 0.839 µM | 1.29 µM | 0.35 µM | 0.0735 µM | 0.295 µM | 10.1 µM | 0.145 µM | 0.381 µM | – | – | 0.0894 µM | – | – | –
6 | CC1OC(n2ccc3ccc([N+](=O)[O-])cc32)C(O)C(O)C1O (configuration not stated) | > 100 µM | > 100 µM | > 100 µM | > 100 µM | > 100 µM | > 100 µM | > 100 µM | > 100 µM | > 100 µM | > 100 µM | > 100 µM | > 100 µM | > 100 µM | > 100 µM | – | – | –
7 | N#CC(NNC(=O)Cc1ccccc1)c1ccc(O)cc1 (configuration not stated) | > 100 µM | – | > 100 µM | > 100 µM | > 100 µM | > 100 µM | > 100 µM | > 100 µM | > 100 µM | > 100 µM | > 100 µM | > 100 µM | > 100 µM | > 100 µM | – | – | –
8 | CC(=O)OC12c3ccccc3C(c3ccccc31)C1C(=O)N(Nc3ccccc3)C(=O)C12 (configuration not stated) | > 100 µM | > 100 µM | > 100 µM | > 100 µM | > 100 µM | > 100 µM | > 100 µM | – | > 100 µM | – | > 100 µM | > 100 µM | > 100 µM | > 100 µM | > 100 µM | – | > 100 µM
9 | Nc1ccc(N=Nc2ccc(-c3ccc(N=Nc4c(S(=O)(=O)O)cc5cc(S(=O)(=O)O)c(N=Nc6ccc([N+](=O)[O-])cc6)c(N)c5c4O)cc3)cc2)c2cc(S(=O)(=O)O)ccc12 | > 100 µM | > 100 µM | > 100 µM | > 100 µM | > 100 µM | > 100 µM | > 100 µM | > 100 µM | > 100 µM | > 100 µM | > 100 µM | > 100 µM | > 100 µM | > 100 µM | – | – | –
10 | Cc1cc2c(=O)c3ccc(Cl)cc3[nH]c2c(C(=O)O)c1C | > 100 µM | – | > 100 µM | > 100 µM | > 100 µM | > 100 µM | > 100 µM | > 100 µM | > 100 µM | > 100 µM | > 100 µM | > 100 µM | > 100 µM | > 100 µM | – | – | –
11 | CCOC(=O)C(=O)N=Nc1c(O)[nH]c2ccccc12 | > 100 µM | > 100 µM | > 100 µM | > 100 µM | > 100 µM | > 100 µM | – | > 100 µM | > 100 µM | > 100 µM | > 100 µM | > 100 µM | > 100 µM | > 100 µM | > 100 µM | > 100 µM | –
12 | CC(=O)OCc1cc(OC(C)=O)c2cc3c(OC(C)=O)cccc3c(OC(C)=O)c2c1 | > 100 µM | 27.3 µM | 32 µM | 44.6 µM | > 100 µM | 40.3 µM | – | – | – | 38.7 µM | > 100 µM | 34.2 µM | 34.4 µM | – | 58.9 µM | 43.9 µM | –
13 | Cc1ccc(NC(=O)C23CC4CC(CC(C4)C2)C3)c(C(=O)NNC(=O)c2ccc(Cl)cc2)c1 | 62.3 µM | – | 37.1 µM | 41.5 µM | 95 µM | 18.2 µM | 49.5 µM | – | 55.2 µM | 53.2 µM | > 100 µM | 37.8 µM | 59 µM | 73.8 µM | 50.3 µM | 37.4 µM | 33.8 µM
